# Tests used:
# Mus musculus = species on record: Mus musculus; test: Tested for the analgesic activity in mouse writhing assay; assay type: functional
# [1] = biological target: Delta-type opioid receptor (Rattus norvegicus) (UniProt P33533); test: Binding affinity against Opioid receptor delta 1 from rat brain using (1.0 nM [3H]DTLET or 1.0 nM [3H]-DSLET) at 6 uM
# [2] = biological target: Mu-type opioid receptor (Rattus norvegicus) (UniProt P33535); test: Binding affinity against mu opioid receptors from rat brain (minus cerebellum) using [3H]DAMGO (2.0 nM) at 10 uM; assay type: tissue-based
# Chain of Mu-type opioid receptor (Rattus norvegicus) (P33535 whole entry): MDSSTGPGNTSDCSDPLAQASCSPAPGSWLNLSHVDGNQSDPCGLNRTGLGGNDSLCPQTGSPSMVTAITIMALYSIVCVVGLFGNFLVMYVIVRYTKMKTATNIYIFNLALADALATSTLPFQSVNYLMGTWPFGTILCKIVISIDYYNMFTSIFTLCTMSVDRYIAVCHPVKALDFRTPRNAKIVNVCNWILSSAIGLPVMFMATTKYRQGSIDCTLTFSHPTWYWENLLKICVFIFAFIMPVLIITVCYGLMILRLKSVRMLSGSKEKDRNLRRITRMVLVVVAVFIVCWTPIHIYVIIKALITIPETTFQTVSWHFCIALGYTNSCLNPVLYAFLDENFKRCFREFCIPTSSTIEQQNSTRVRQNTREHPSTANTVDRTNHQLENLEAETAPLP
# Chain of Delta-type opioid receptor (Rattus norvegicus) (P33533 whole entry): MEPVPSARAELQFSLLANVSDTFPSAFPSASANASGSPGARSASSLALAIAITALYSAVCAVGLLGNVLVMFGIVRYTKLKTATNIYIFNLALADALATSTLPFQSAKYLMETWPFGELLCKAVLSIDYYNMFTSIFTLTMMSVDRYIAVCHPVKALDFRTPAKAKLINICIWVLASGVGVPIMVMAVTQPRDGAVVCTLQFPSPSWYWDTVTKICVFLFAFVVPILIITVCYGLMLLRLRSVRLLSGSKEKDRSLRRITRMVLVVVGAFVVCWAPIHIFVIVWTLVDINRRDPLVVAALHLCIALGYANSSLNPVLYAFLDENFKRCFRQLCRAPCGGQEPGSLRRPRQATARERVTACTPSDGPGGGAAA
smiles,measurement,setting,value
COC(=O)C[C@@H]1CC[C@H](Cc2ccccc2)NC(=O)CCC(CNC(=O)[C@@H](N)Cc2ccc(O)cc2)C(=O)N1 (stereo partly drawn),ED50,Mus musculus,<10 µg/mL
same,Displacement,[1],50%
same,Displacement,[2],53%

# Reference: ChEMBL document CHEMBL1126995, “Nonpeptide -turn mimetics of enkephalin” (1993)
